Assay results published in publication PMC8243409 (Journal of chemical information and modeling, 2021).

Target: E. coli dihydrofolate reductase (DHFR) (Escherichia coli, UniProt P0ABQ4)
Test: steady-state kinetics dose response
Assay type: biochemical

E. coli dihydrofolate reductase (DHFR), sequence (P0ABQ4 whole entry): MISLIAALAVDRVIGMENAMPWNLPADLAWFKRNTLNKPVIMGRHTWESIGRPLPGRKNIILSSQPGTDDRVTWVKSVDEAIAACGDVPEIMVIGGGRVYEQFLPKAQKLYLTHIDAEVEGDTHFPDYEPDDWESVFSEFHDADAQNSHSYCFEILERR

With COc1cc2c(Nc3ccc(Br)cc3F)ncnc2cc1OCC1CCN(C)CC1 [NSC760766, Vandetanib] the IC50 was roughly 39 µM.
